Experimental data as given in patent US20260069606A1, “Oxidative Stress and Diabetes Treatment with Cobinamide” (The Regents of the University of California, priority 2022, published 2026).

Legend:
COS-7 cells = test system: COS-7 cells
Protocol: (§1) FIGS. 3A-3H. […] FIGS. 3A-3B. […] FIG. 3A. […] FIG. 3B. […] FIGS. 3C-3D. […] FIG. 3D. […] FIGS. 3E-3F. […] FIG. 3E. Representative blots are shown. […] FIG. 3F. […] FIG. 3G. […] FIG. 3H.
Finally, whether cobinamide could alleviate the effects of oxidative stress induced by yet another mechanism in a different cell type was tested using paraquat-treated COS-7 cells. Paraquat generates O2·^− through a redox cycling mechanism and increases both intracellular O2·^− and H2O2^42.

[1] = test system: H9c2 rat embryonal cardiomyocytes; assay: Mitochondrial superoxide content, MitoSOX Red fluorescence; type: cell-based
Protocol: as §1
H9c2 cells were plated on glass cover slips in 24 well dishes, and 16 h later the medium was changed to phenol red-free DMEM supplemented with 20 mM Hepes, 0.1% fetal bovine serum, and 0.5% bovine serum albumin. […] MitoSOX Red is a dihydroethidium derivative containing triphenyl-phosphonium, which localizes it to respiring mitochondria. Its reaction with O2·^− yields 2-hydroxy-mitoethidium (2-OH-Mito-E″), whereas its reaction with other oxidative species yields mitoethidium (Mito-E^+)^67. These two oxidative derivatives have overlapping fluorescence spectra, but they can be distinguished by high performance liquid chromatography (HPLC)^68. Rotenone increased 2-OH-Mito-E^+ about two-fold, without increasing Mito-E^+. Thus, any increased fluorescence observed on treating cells with rotenone could be ascribed to an increase in 2-OH-Mito-E^+, and decreased fluorescence by an anti-oxidant in rotenone-treated cells was likely from a decrease in 2-OH-Mito-E^+.
The cells were then washed once with PBS, placed back in the DMEM experimental medium, and incubated with the indicated drugs for 30 min. At the end of the incubation period, nuclei of both the MitoSOX Red- and JC-1-treated cells were stained with […] 4′,6-diamidino-2-phenyl-indole (DAPI) for 3 min, washed once with PBS, and returned to the DMEM experimental medium. The cover slips were removed from the wells, mounted in the DMEM experimental medium, and red (MitoSOX Red and JC-1 aggregates), green (JC-1 monomers), and blue (DAPI) fluorescence intensity was assessed using a Keyence BZ-X700 fluorescence microscope at the following paired excitation/emission wavelengths, respectively: 560/630, 490/525, and 360/460 nm.
To assess if cobinamide reduces oxidative stress in cells and to compare its […] efficacy to that of cobalamin, imisopasem, and MnTBAP, several sets of experiments were performed. First, whether cobinamide reduces mitochondrial-generated O2·^− was evaluated using the fluorescent probe MitoSOX Red. H9c2 rat embryonal cardiomyocytes were treated with rotenone, an inhibitor of complex I, to increase mitochondrial O2·^−. […] Monitoring the UV-visible spectrum of cobinamide is a sensitive means to assess ligand binding^38.

[2] = mouse, in vivo
Protocol: It seemed possible, therefore, that the cobinamide administered to the mice could have increased their blood pressure, since ·NO is a potent vasodilator. Because diabetes can increase blood pressure, these studies were performed on a parallel set of non-diabetic mice of the same strain and sex and using the same concentration of histidyl-cobinamide in the drinking water as in the above-described studies.

[3] = test system: Jun N-terminal kinase (JNK) phosphorylation in H9c2 cells; assay: H2O2-induced JNK phosphorylation, immunoblotting; type: cell-based, rat
Text: as §1

[4] = second order; literature values; cited from earlier work
hearts of diabetic mice = assay: Cardiac fibrosis (collagen deposition, Mallory trichrome) in diabetic mice; type: in vivo; details: three months histidyl-cobinamide in drinking water
Protocol: FIGS. 4A-4K. Cobinamide Rescues Flies from Paraquat Poisoning and Prevents Abnormal Lipid and Protein Oxidation, DNA Damage, and Fibrosis in the Hearts of Diabetic Mice. FIG. 4A. At time zero, 10 fruit flies (D. melanogaster) were transferred to vials with food to which either phosphate-buffered saline (PBS), 0.8 mM of the indicated drugs, 20 mM paraquat (PQ), or 20 mM paraquat with 0.8 mM of the indicated drugs had been added. The number of live flies was counted each day for 7 d. The experiment was repeated seven times, for a total of 70 flies per condition. The percent surviving flies was calculated; error bars represent standard deviations and are shown in one direction only for sake of clarity. FIGS. 4B-4K. […] The amount of 8-isoprostane (FIG. 4B) was measured by ELISA, protein oxidation (FIGS. 4C-4D) was assessed by immunoblotting, and nitrotyrosine content (FIGS. 4E-4F) was assessed by immunohistochemistry. DNA damage was assessed by 8-OH-deoxyguanosine staining (FIGS. 4G-4H) and a long amplicon qPCR-based assay (FIG. 4I). Cardiac fibrosis (FIGS. 4J-4K) was assessed by Mallory trichrome staining, which stains collagen blue. […] For Panels C, D, and I, frozen heart samples were selected randomly from each of the four groups and were analyzed. For Panel D, blots were analyzed by densitometric scanning using Li-Cor Odyssey software, with the density of each lane normalized to the actin band. […]

C/C1=C2/[N-][C@H]([C@H](CC(N)=O)[C@@]2(C)CCC(=O)NC[C@@H](C)O)[C@]2(C)N=C(/C(C)=C3N=C(/C=C4N=C1[C@@H](CCC(N)=O)C\4(C)C)[C@@H](CCC(N)=O)[C@]\3(C)CC(N)=O)[C@@H](CCC(N)=O)[C@]2(C)CC(N)=O.[Co+3] [cobinamide, aquohydroxo-cobinamide]
Cell growth of paraquat-treated cells (COS-7 cells; COS-7, 1 mM paraquat 3 h, 100 μM drug, counted 48 h later): ~80 % of the control value | Effect on cell growth, drug alone (COS-7 cells; COS-7, no paraquat): no effect on cell growth | MitoSOX red fluorescence in rotenone-treated cells ([1]; H9c2, 5 μM rotenone 30 min, drugs at 2.5 μM): markedly reduced fluorescence | MitoSOX red fluorescence, drug alone ([1]; H9c2, vehicle-treated cells without rotenone, 2.5 μM): no change | Blood pressure [2]: no change in blood pressure | JNK phosphorylation in H2O2-treated cells ([3]; H9c2, 100 μM H2O2 30 min, drugs at 100 μM): reduced JNK phosphorylation to a level that was indistinguishable from vehicle-treated cells | JNK phosphorylation or total cellular JNK in the absence of H2O2 ([3]; H9c2, drug alone): neither Cbi(III), Cbi(II) nor the other three drugs affected JNK phosphorylation | Rate constant, reaction with nitric oxide (·NO), published [4]: 2.4 × 10^8 (51) M^−1 s^−1 | Collagen content in hearts of diabetic mice (hearts of diabetic mice): reduced collagen content in the hearts of the diabetic mice essentially to that of non-diabetic mice
